# Data: patent publication US20210052480A1, “USE OF CYCLIC PEPTIDES IN COSMETIC” (Sederma, priority 2018, published 2021)
# Experiments:
# Assay type in all cases: cell-based
# HNFs [1] = experiment: Comparative collagen I synthesis by fibroblasts, ELISA; settings: 3 days
# Method: HNFs were grown in 24-well plates for 24 hours. The cells were placed in contact or not with test products at different concentrations for 3 days. The collagen synthesis was evaluated by ELISA assay on the culture supernatant and the result was reduced to the number of cells.
# HNFs [2] = experiment: Comparative elastin synthesis by fibroblasts, ELISA; settings: 12.5 ppm; 3 days
# FHNs = experiment: Comparative collagen I synthesis by fibroblasts, IMF; settings: 6 days
# Method: FHNs were grown in 24-well plates for 24 hours. The cells were placed in contact with test products (or their excipient) at different concentrations for 6 days. The collagen I produced by the cells was then quantified by immunofluorescence on the fixed mats, and the result was then reduced to the number of cells.
Substance,"Collagen I production (ELISA method), comparison (HNFs [1]; 10 ppm)","Collagen I production (ELISA method), comparison (HNFs [1]; 15 ppm)","Production of elastin (ELISA method), comparison (HNFs [2])","Production of collagen I (IMF method), comparison (FHNs; 5 ppm)","Production of collagen I (IMF method), comparison (FHNs; 10 ppm)"
Cyclo(-Met-Leu-Ile-Pro-Pro-Phe-Phe-Val-Ile) (MLIPPFFVI; cyclic; Synthetic peptide or Linum usitatissimum; (1)..(1) M can be oxidized into sulfoxide or sulfone; (1)..(9) Cyclic peptide) [Linusorb B2],+36.2%; p <0.01,+39.2%; p <0.01,+43%; p <0.05,+34.2; dns,+41.8; p <0.01
cyclo(ILVPPFFLI) [Linusorb B3],−0.4%; nds,+62.6%; p <0.01,+58%; p <0.05,+111.1; p <0.01,+121.7; p <0.01
